Measured values as given in PMC8551334 (Scientific Reports, 2021).
≈ marks a conversion by molar mass, not a printed value. Like-named read-outs stand apart in the source and are kept apart here.

What was measured:
DENV-3 [1] = assay: Attachment assay; format: cell-based, dengue virus
Method: Vero cells (1 × 10^5 cells/well) were grown overnight in a 24-well plate. […] After 1 h, the flavonoid-treated virus is incubated on ice for 15 min. Next, pre-chilled Vero cells were infected with the pre-chilled flavonoid-treated virus at 4 °C for 1 h to allow virus attachment. Then, the unabsorbed virus was removed, and the cells were washed and overlaid with 1 mL of overlay medium. After 4 days, the reduction in foci was determined by immunostaining.

DENV-3 [2] = assay: FACS neutralization test (FNT); format: cell-based, dengue virus; details: for FACS gating percentage (FITC-positive population): 10,000 events
Method: Vero cells were seeded in 24 well plates at a density of 1 × 10^5 cells/well and incubated overnight. The antiviral assays were done using MOI 0.5 DENV-3, and FNT was carried out 48 h post-infection. Viral infected cells were harvested by trypsinization and centrifugation (1500 rpm, 5 min). Harvested cells were washed with PBS and fixed with 250 µL of BD Cytofix/Cytoperm™ Fixation/Permeabilization solution kit with BD GolgiStop™ (BD Biosciences, USA) solution and incubated on ice for 20 min in the dark. The cells were centrifuged at 3000 rpm for 2 min and washed two times with stain buffer (PBS + 5%FBS). Staining was performed with 50 µL of anti-dengue virus type III primary antibody, clone 5D4-11 (MAB8703 Sigma-Aldrich, USA), diluted in Cytoperm/Cytowash solution at a ratio of 1:1000 and incubated for 1 h on ice. After that, the cells were washed and stained with 50 µL of FITC-conjugated secondary antibody (Sigma-Aldrich, USA) diluted in Cytoperm/Cytowash solution at a ratio of 1:1000 and incubated for 1 h on ice in the dark. The samples were analyzed in a BD FACSCalibur flow cytometer (BD Biosciences, USA) using BD Cellquest pro software. For each sample, 10,000 events were collected, and the percent reduction in the number of infected cells was calculated using the following equation. Percentageofinhibition%=(C-T)/C×100% where, C is the percentage of viral infected cells among the 10,000 events without flavonoid treatment (control). T is the percentage of infected cells among the 10,000 events with the respective flavonoid treatment.
Percent reduction in virus-infected cells was represented as the mean ± standard error of the mean (SEM) from triplicate assays determined from three independent experiments.

EVA-71 = details: cited from earlier work
DENV-3 [3] = assay: Time course assay for virucidal activity; format: cell-based, dengue virus; details: for Time taken to achieve 50% viral infectivity inhibition: co-incubation with DENV-3
Method: Vero cells (1 × 10^5 cells/well) were grown overnight in a 24-well plate. […] Cells were infected with the flavonoid-treated virus and incubated at 37 °C for 1 h. Then, the unabsorbed virus was removed, and the cells were washed and overlaid with 1 mL of overlay medium. After 4 days, the reduction in foci was determined by immunostaining.

DENV-4 = assay: Virucidal assay against DENV-4, FFURA; format: cell-based; details: Dengue virus, DENV4; read-out: Viral infectivity inhibition, DENV-4
Method: (§1) The antiviral activity of flavonoids was determined by measuring the reduction in the number of DENV infectious foci after treatment. The antiviral assays were performed based on Zandi et al.[14] with minor modifications. Briefly, a confluent monolayer of Vero cells seeded in 24-well plates was treated with flavonoids before or after or with the virus infection and incubated for 4 days. The virus foci were visualized using immunostaining. The flavonoids' antiviral activities were determined by calculating the percentage of foci reduction (%RF) according to the following equation: Percentageofinhibition%=(C-T)/C×100% where, C is the number of foci without the flavonoid treatment (control). T is the number of foci with the respective flavonoid treatment.
(§2) After 1 h, the flavonoid-treated virus was used to infect Vero cells at 37 °C for 1 h. Then, the unabsorbed virus was removed, and the cells were washed and overlaid with 1 mL of overlay medium. After 4 days, the reduction in foci was determined by immunostaining. Another parallel experiment was carried out by replacing the overlay medium with DMEM supplemented with 2% FBS to determine the reduction in viral RNA copy number by qRT-PCR as previously described.

DENV-3 [4] = assay: Virucidal assay against extracellular DENV-3, qRT-PCR (viral RNA copy number); format: cell-based, dengue virus; details: for IC50: Dengue virus, DENV3, extracellular DENV-3, reduction in viral RNA copy number, mean ± SEM
Method: (§3) Viral RNA extraction was performed using QIAamp^R Viral RNA extraction kit (QIAGEN, Germany), and viral RNA copy number was quantified using the genesig Real-Time qRT-PCR Standard Kit (PrimerDesign, UK). The reactions were in a final volume of 20 μL containing 10 μL of the master mix, 1 μL of probe/primer mix, 4 μL of nuclease-free water, and 5 μL of viral RNA template. Quantitative PCR was performed using a CFX96 Touch™ Real-Time PCR Detection System (Bio-Rad, USA.) with the following conditions: 10 min at 55 °C (reverse transcription), 2 min at 95 °C (enzyme activation) followed by 50 cycles of amplification (10 s at 95 °C, 60 s at 60 °C). The viral RNA copy number was determined based on the threshold cycles (Ct) and standard curve generated from known RNA standards.
as §2
(§4) The maximum non-toxic dose (MNTD80) and 50% of inhibition (IC50) of flavonoids in Vero cells were calculated using Prism software (GraphPadPrism8, CA, USA) by applying four-parameter logistic non-linear regression model. The selectivity index (SI) was calculated as SI = CC50/IC50. Data presented are the mean ± SEM of three independent experiments. The student t-test was used to analyze the antiviral activity of flavonoids compared to a positive control (*p < 0.05, **p < 0.01, ***p < 0.001, ****p < 0.0001).

DENV-3 [5] = assay: Entry assay; format: cell-based, dengue virus
Method: Pre-chilled DENV-3 (80 FFU/well) in the absence of flavonoids were added to the pre-chilled Vero cells and incubated at 4 °C to allow virus attachment. […] After that, the medium containing flavonoids was removed, and Vero cells were washed and treated with acidic PBS (pH 3) for 60 s to inactivate the extracellular virus. After 60 s, the acidic PBS was neutralized by alkaline PBS (pH 11) in each well. Next, cells were then washed with serum-free media and overlaid with 1 mL of overlay medium. After 4 days, the reduction in foci was determined by immunostaining.

DENV-3 [6] = assay: Virucidal assay against extracellular DENV-3, FFURA (foci reduction); format: cell-based, dengue virus; details: for IC50: extracellular DENV-3, reduction in virus foci, mean ± SEM; for Viral foci reduction at highest concentration, virucidal assay: silymarin 200 µg/mL, baicalein 100 µg/mL, baicalin 20 µg/mL, DENV-3
Method: as §1, §2, §4

DENV-1 = assay: Virucidal assay against DENV-1, FFURA; format: cell-based; details: Dengue virus, DENV1; read-out: Viral infectivity inhibition, DENV-1
Method: as §1, §2

DENV-3 progeny [7] = assay: Post-infection assay, intracellular DENV-3 progeny, FFURA; format: cell-based, dengue virus; details: for IC50: 48 h treatment, mean ± SEM, read-out: IC50 against DENV-3 progeny, FFURA
Method: as §1
(§5) To determine the activity of flavonoids in inhibiting the intracellular viral progeny, Vero cells (1 × 10^5 cells/well) in a 24-wells plate were infected with DENV-3 (MOI = 0.1) for 1 h at 37 °C. […] After 48 h, the viral supernatant was collected, and twofold dilution was used to reinfect fresh monolayer of Vero cells, and the reduction in viral titer was quantified using FFURA and qRT-PCR.
as §4

DENV-2 = assay: Virucidal assay against DENV-2, FFURA; format: cell-based; details: Dengue virus, DENV2; read-out: Viral infectivity inhibition, DENV-2
Method: as §1, §2

DENV-3 progeny [8] = assay: Post-infection assay, intracellular DENV-3 progeny, qRT-PCR; format: cell-based, dengue virus; details: for IC50: Dengue virus, DENV3, 48 h treatment, mean ± SEM, read-out: IC50 against DENV-3 progeny, qRT-PCR
Method: as §3, §5, §4

[9] = Cytotoxicity of flavonoids in Vero cells by MTS assay; format: cell-based, African green monkey; details: African green monkey
Method: (§6) The cytotoxic potential of flavonoids in Vero cells was assessed by MTS assay. Briefly, confluent Vero cells in a 96 well plate were treated with different concentrations of flavonoids in triplicates with DMEM containing 2% FBS. After 2 days, 20 μL of 3-(4,5-Dimethylthiazol-2-yl)-5-(3-carboxymethoxyphenyl)-2-(4-sulfophenyl)-2H-tetrazolium (MTS) reagent (Promega, France) was added to each well. After 1 h of incubation at 37 °C, the cells were agitated, and the absorbance was measured at 490 nm in a microplate reader (Tecan, Infinite M2000, Switzerland). Maximum non-toxic dose (MNTD80) and 50% cytotoxic concentration (CC50) were calculated by non-linear regression using prism software (GraphPadPrism8, USA).
as §4

Vero cells [10] = assay: as above; format: cell-based, African green monkey; details: 48 h; for Concentrations up to which no significant cytotoxic effects were seen: African green monkey; for MNTD80 (maximum non-toxic dose, 80% of cells viable): Vero cells, MTS assay, mean ± SEM
Method: as §6, §4

Vero cells [11] = test system: Vero cells; parameters: method as in Moghaddam et al. 15; details: ref Moghaddam et al. 15; cited from earlier work
[12] = silymarin 200, baicalein 100, baicalin 20 µg/mL
[13] = Dengue virus, DENV3, post-infection assay
[14] = Dengue virus, DENV3, read-out: Maximum inhibition of intracellular viral progeny infectivity

O=c1cc(-c2ccccc2)oc2cc(O)c(O)c(O)c12 [Baicalein]
Inhibition of viral attachment (DENV-3 [1]; DENV-3 to Vero cells, silymarin 200, baicalein 100, baicalin 20 µg/mL): 95.59 ± 1.44% | FACS gating percentage (FITC-positive population) (DENV-3 [2]; [12]): 0.44% | Percentage of inhibition of DENV-3 infected cell population (FNT) (DENV-3 [2]; MOI 0.5, 48 h post-infection, silymarin 200, baicalein 100, baicalin 20 µg/mL): 97.92% | Virucidal effect against EVA-71 (EVA-71; silymarin at < 1 min contact, baicalein maximum at 60 min): 60% | Period of contact (co-incubation time) needed for the virucidal effect (EVA-71; silymarin for 65% effect, baicalein for maximum of 60% effect): 60 min | Viral infectivity inhibition achieved at 0 min (DENV-3 [3]; 0 min co-incubation, silymarin 200, baicalein 100, baicalin 20 µg/mL): 62.45 ± 3.67% | Viral infectivity inhibition at 60 min co-incubation (maximum) (DENV-3 [3]; 60 min co-incubation, silymarin 200, baicalein 100, baicalin 20 µg/mL): 97.24% | Time taken to achieve 50% viral infectivity inhibition (DENV-3 [3]; [12]): 0 min | Co-incubation time to reach up to 75% viral infectivity inhibition (DENV-3 [3]; silymarin 200, baicalein 100 µg/mL): 15 min | inhibition at 100 µg/mL (DENV-4): 80.49 ± 0.26% | IC50 (DENV-3 [4]): 17.2 ± 2.48 µg/mL (≈ 63.8 µM) | Inhibition of viral entry (DENV-3 [5]; DENV-3 into Vero cells, silymarin 200, baicalein 100, baicalin 20 µg/mL): 57.91 ± 11.65% | IC50 (DENV-3 [6]; Dengue virus, DENV3): 12.7 ± 3.49 µg/mL (≈ 47 µM) | inhibition at 100 µg/mL (DENV-3 [6]; Dengue virus, DENV3, read-out: Viral infectivity inhibition, DENV-3): 99.68 ± 0.1% | Viral foci reduction at highest concentration, virucidal assay (DENV-3 [6]): 99.78% | inhibition at 100 µg/mL (DENV-1): 96.7 ± 2.1% | IC50 (DENV-3 progeny [7]; [13]): 34.7 ± 6.71 µg/mL (≈ 128 µM) | inhibition at 100 µg/mL (DENV-3 progeny [7]; [14]): 79.7% | inhibition at 100 µg/mL (DENV-2): 97.2 ± 1.41% | IC50 (DENV-3 progeny [8]): 29.7 ± 12.8 µg/mL (≈ 110 µM) | CC50 at 48 h ([9]; Vero cells, MTS assay, 48 h, mean ± SEM, read-out: CC50 (half maximum cytotoxic concentration)): 271 ± 6.57 µg/mL (≈ 1000 µM) | Concentrations up to which no significant cytotoxic effects were seen (Vero cells [10]): ≤ 100 µg/mL | MNTD80 (maximum non-toxic dose, 80% of cells viable) (Vero cells [10]): 122.95 ± 2.37 µg/mL

O=C(O)[C@H]1O[C@@H](Oc2cc3oc(-c4ccccc4)cc(=O)c3c(O)c2O)[C@H](O)[C@@H](O)[C@@H]1O [Baicalin]
CC50 (Vero cells [11]): 290.9 µg/mL (≈ 652 µM) | inhibition at 20 µg/mL (DENV-3 [1]; Dengue virus, DENV3, Vero, read-out: Inhibition of viral attachment): 48.5 ± 9.1% | FACS gating percentage (FITC-positive population) (DENV-3 [2]; [12]): 42.35% | inhibition at 20 µg/mL (DENV-3 [2]; Dengue virus, DENV3, 48 h, read-out: Percentage of inhibition of DENV-3 infected cell population (FNT)): 31.9% | inhibition at 20 µg/mL (DENV-3 [3]; Dengue virus, DENV3, 1 h, read-out: Viral infectivity inhibition at 60 min co-incubation (maximum)): 66.9% | Time taken to achieve 50% viral infectivity inhibition (DENV-3 [3]; [12]): 25.8 min | IC50 (DENV-3 [4]): 17.4 ± 6.51 µg/mL (≈ 39 µM) | SI (CC50/IC50), virucidal assay, qRT-PCR (DENV-3 [4]; extracellular DENV-3): 3.14 | inhibition at 20 µg/mL (DENV-3 [5]; Dengue virus, DENV3, Vero, read-out: Inhibition of viral entry): 49.8 ± 8.78% | IC50 (DENV-3 [6]; Dengue virus, DENV3): 7.38 ± 1.1 µg/mL (≈ 16.5 µM) | SI (CC50/IC50), virucidal assay, FFURA (DENV-3 [6]; extracellular DENV-3): 7.40 | Viral foci reduction at highest concentration, virucidal assay (DENV-3 [6]): 76% | IC50 (DENV-3 progeny [7]; [13]): 5.31 ± 1.96 µg/mL (≈ 11.9 µM) | inhibition at 20 µg/mL (DENV-3 progeny [7]; [14]): 81% | SI (CC50/IC50) against DENV-3 progeny, FFURA (DENV-3 progeny [7]; post-infection assay): 10.29 | SI (CC50/IC50) against DENV-3 progeny, qRT-PCR (DENV-3 progeny [8]): 12.06 | IC50 (DENV-3 progeny [8]): 4.53 ± 0.62 µg/mL (≈ 10.1 µM) | CC50 at 48 h [9]: 54.6 ± 0.76 µg/mL (≈ 122 µM) | Concentrations up to which no significant cytotoxic effects were seen (Vero cells [10]): ≤ 20 µg/mL | MNTD80 (maximum non-toxic dose, 80% of cells viable) (Vero cells [10]): 19.15 ± 0.07 µg/mL
